Measured values published in patent US9096591B2, “Tetracyclic compounds” (Medivation Technologies, Inc., priority 2007, dated 2015).

Tests used:
[1] = molecular target: T1, human recombinant serotonin (5-Hydroxytryptamine) 5-HT6 receptor (Homo sapiens, UniProt P50406); assay: Serotonin 5-HT6 radioligand binding ([3H]LSD); design: Inhibition of ligand binding, Ser. 5-HT6: concentration or dose not given beside the values; conditions: percent inhibition of specific binding
T1 construct: expressed in transfected cells; host or cells: human HeLa cells
T1 sequence (P50406 whole entry): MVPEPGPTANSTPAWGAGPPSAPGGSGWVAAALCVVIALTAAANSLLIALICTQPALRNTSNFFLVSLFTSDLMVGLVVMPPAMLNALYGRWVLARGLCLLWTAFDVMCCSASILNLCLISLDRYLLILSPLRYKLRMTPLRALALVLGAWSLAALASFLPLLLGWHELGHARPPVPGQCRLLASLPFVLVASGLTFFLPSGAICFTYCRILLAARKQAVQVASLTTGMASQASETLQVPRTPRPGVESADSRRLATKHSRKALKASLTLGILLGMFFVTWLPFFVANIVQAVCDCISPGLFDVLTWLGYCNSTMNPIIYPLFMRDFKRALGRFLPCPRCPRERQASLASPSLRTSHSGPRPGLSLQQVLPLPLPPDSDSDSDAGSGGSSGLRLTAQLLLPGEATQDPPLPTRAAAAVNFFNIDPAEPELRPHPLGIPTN
Excerpt: Receptor proteins were filtered and washed, the filters were then counted to determine [3H]LSD specifically bound. […] Biochemical assay results are presented as the percent inhibition of specific binding in Table 6.

[2] = molecular target: T2, human recombinant dopamine D2L receptor (Homo sapiens, UniProt P14416); assay: Dopamine D2L radioligand binding ([3H]Spiperone); conditions: percent inhibition of specific binding
T2 construct: expressed in transfected cells; host or cells: CHO cells
T2 sequence (P14416 whole entry): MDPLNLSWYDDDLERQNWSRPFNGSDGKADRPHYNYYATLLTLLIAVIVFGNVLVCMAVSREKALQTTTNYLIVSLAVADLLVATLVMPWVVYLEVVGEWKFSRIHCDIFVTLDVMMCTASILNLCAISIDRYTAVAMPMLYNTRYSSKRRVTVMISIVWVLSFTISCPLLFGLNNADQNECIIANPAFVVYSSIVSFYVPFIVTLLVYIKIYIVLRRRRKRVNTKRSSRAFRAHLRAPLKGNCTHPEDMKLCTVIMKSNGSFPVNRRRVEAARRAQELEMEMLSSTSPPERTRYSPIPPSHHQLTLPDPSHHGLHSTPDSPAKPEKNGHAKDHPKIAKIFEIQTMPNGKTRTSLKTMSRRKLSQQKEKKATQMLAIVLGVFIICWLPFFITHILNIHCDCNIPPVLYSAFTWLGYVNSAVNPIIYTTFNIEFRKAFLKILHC
Experimental: Non-specific binding was estimated in the presence of 10 μM Haloperidol. Receptor proteins were filtered and washed, the filters were then counted to determine [^3H]Spiperone specifically bound. […] Biochemical assay results are presented as the percent inhibition of specific binding in Table 6.

[3] = molecular target: T3, human recombinant serotonin (5-Hydroxytryptamine) 5-HT2A receptor (Homo sapiens, UniProt P28223); assay: Serotonin 5-HT2A radioligand binding ([3H]Ketanserin); conditions: percent inhibition of specific binding
T3 construct: expressed in transfected cells; host or cells: CHO-K1 cells
T3 sequence (P28223 whole entry): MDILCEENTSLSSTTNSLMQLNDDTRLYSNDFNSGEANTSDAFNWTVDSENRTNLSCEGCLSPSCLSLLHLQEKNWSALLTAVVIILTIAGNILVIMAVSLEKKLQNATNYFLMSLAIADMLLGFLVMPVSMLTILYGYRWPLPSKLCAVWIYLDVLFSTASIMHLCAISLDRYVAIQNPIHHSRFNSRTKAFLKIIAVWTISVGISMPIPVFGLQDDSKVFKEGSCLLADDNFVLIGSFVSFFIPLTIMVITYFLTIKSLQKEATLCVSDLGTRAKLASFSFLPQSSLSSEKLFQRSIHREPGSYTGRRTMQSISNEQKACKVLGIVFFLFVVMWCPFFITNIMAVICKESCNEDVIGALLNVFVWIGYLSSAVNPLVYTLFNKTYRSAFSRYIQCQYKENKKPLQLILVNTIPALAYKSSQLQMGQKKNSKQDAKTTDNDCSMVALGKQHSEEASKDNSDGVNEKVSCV
Experimental: (§1) Compounds of the invention were incubated with 0.5 nM [^3H]Ketanserin for 60 minutes at 25° C. Non-specific binding was estimated in the presence of 1 μM Mianserin. Receptor proteins were filtered and washed, the filters were then counted to determine [^3H]Ketanserin specifically bound. […] Biochemical assay results are presented as the percent inhibition of specific binding in Table 6.

[4] = molecular target: T4, human recombinant histamine H2 receptor (Homo sapiens, UniProt P25021); assay: Histamine H2 radioligand binding ([125I]Aminopotentidine); conditions: percent inhibition of specific binding; screened at 1 μM; read-out: Inhibition of ligand binding, Hist. H2
T4 construct: expressed in transfected cells; host or cells: CHO-K1 cells
T4 sequence (P25021 whole entry): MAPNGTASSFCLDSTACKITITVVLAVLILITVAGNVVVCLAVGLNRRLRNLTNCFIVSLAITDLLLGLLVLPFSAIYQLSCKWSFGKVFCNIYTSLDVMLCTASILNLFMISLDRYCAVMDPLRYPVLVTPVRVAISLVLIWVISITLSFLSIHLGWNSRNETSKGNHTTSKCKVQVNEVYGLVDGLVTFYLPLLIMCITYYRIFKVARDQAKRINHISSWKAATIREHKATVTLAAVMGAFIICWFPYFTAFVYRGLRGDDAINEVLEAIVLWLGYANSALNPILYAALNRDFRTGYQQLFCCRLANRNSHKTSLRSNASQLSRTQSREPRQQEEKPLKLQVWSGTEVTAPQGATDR
Procedure, shortened: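 Test compounds were assessed for their ability to displace radioligand from the human recombinant histamine H2 receptor. Non-specific binding was determined in the presence of 3 μM Tiotidine, and results were expressed as percent inhibition of specific binding, with 1% DMSO serving as the vehicle.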

[5] = molecular target: T5, human recombinant adrenergic α2B receptor (Homo sapiens, UniProt P18089); assay: Adrenergic α2B radioligand binding ([3H]Rauwolscine); design: Inhibition of ligand binding, Adren. alpha2B: concentration or dose not given beside the values; conditions: percent inhibition of specific binding
T5 construct: expressed in transfected cells; host or cells: CHO-K1 cells
T5 sequence (P18089 1-450): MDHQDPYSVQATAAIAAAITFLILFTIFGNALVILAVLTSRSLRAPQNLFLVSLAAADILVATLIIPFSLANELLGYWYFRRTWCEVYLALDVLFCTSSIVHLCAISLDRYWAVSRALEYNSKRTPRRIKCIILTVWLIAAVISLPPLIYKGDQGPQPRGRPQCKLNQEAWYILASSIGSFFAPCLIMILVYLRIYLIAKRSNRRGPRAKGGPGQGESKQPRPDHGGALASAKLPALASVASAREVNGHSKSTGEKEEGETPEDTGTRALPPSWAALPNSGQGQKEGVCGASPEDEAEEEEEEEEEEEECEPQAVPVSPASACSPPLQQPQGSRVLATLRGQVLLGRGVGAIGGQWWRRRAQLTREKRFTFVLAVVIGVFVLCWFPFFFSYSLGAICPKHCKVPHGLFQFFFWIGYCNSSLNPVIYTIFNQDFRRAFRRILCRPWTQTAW
Procedure, shortened: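 Membranes from CHO-K1 cells expressing the receptor, in 50 mM Tris-HCl pH 7.4 with 12.5 mM MgCl2, 1 mM EDTA, 0.2% BSA, incubated with compounds and 2.5 nM [3H]Rauwolscine for 60 minutes at 25 °C.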

[6] = molecular target: T6, human recombinant serotonin (5-Hydroxytryptamine) 5-HT2C receptor (Homo sapiens, UniProt P28335); assay: Serotonin 5-HT2C radioligand binding ([3H]Mesulergine); design: Inhibition of ligand binding, Ser. 5-HT2C: concentration or dose not given beside the values; conditions: percent inhibition of specific binding
T6 construct: expressed in transfected cells; host or cells: CHO-K1 cells
T6 sequence (P28335 33-458): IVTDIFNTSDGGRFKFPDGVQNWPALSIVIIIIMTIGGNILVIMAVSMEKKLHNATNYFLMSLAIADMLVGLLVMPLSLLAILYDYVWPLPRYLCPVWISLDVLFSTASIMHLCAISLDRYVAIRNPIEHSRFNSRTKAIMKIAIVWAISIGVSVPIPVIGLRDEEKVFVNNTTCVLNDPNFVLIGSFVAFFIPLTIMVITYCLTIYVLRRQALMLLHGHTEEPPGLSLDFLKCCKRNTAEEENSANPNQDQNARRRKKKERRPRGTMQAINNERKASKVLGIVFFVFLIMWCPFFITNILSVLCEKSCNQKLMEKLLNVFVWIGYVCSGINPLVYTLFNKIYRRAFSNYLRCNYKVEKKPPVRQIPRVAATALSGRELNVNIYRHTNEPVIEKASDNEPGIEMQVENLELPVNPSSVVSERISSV
Experimental: as §1, with “1” for “0.5”, “[^3H]Mesulergine” for “[^3H]Ketanserin”

| Structure (SMILES) | Inhibition of ligand binding, Ser. 5-HT6 [1] | Inhibition of ligand binding, Dop. D2L [2] | Inhibition of ligand binding, Ser. 5-HT2A [3] | inhibition at 1 µM [4] | Inhibition of ligand binding, Adren. alpha2B [5] | Inhibition of ligand binding, Ser. 5-HT2C [6] |
| --- | --- | --- | --- | --- | --- | --- |
| Cc1ccc2c(n1)c1c(n2CCc2ccc(C(F)(F)F)nc2)CCN(C)C1 [Compound 353, 9-aza-2,8-dimethyl-5-(2-(6-(trifluoromethyl)pyridin-3-yl)ethyl)-2,3,4,5-tetrahydro-1H-pyrido[4,3-b]indole] | 0% | 5% | −1% | -2% | 11% | −15% |
| CCc1ccc2c(c1)c1c(n2CCc2ccc(C)nc2)CCN(C)C1 [Compound 357, 8-Ethyl-2-methyl-5-[2-(6-methyl-pyridin-3-yl)-ethyl]-2,3,4,5-tetrahydro-1H-pyrido[4,3-b]indole] | 85% | 47% | 69% | 68% | 106% | 67% |
| CCc1ccc2c(c1)c1c(n2CCc2ccc(C(F)(F)F)nc2)CCN(C)C1 [Compound 358, 8-Ethyl-2-methyl-5-[2-(6-trifluoromethyl-pyridin-3-yl)-ethyl]-2,3,4,5-tetrahydro-1H-pyrido[4,3-b]indole] | 65% | 38% | 95% | 47% | 109% | 78% |
| CCc1ccc(CCn2c3c(c4cc(C)ccc42)CN(C)CC3)cn1 [Compound 359, 5-[2-(6-Ethyl-pyridin-3-yl)-ethyl]-2,8-dimethyl-2,3,4,5-tetrahydro-1H-pyrido[4,3-b]indole] | 95% | 51% | 96% | 94% | 90% | 91% |
| Cc1ncc(CCn2c3c(c4cc(Cl)ccc42)CN(C)CC3)cn1 [Compound 361, 8-Chloro-2-methyl-5-[2-(2-methyl-pyrimidin-5-yl)-ethyl]-2,3,4,5-tetrahydro-1H-pyrido[4,3-b]indole] | 76% | 31% | 60% | 25% | 94% | 58% |
| CCc1ccc2c(c1)c1c(n2CCc2cnc(C)nc2)CCN(C)C1 [Compound 362, 8-Ethyl-2-methyl-5-[2-(2-methyl-pyrimidin-5-yl)-ethyl]-2,3,4,5-tetrahydro-1H-pyrido[4,3-b]indole] | 61% | 17% | 27% | 19% | 82% | 40% |
| Cc1cnc(CCn2c3c(c4cc(Cl)ccc42)CN(C)CC3)cn1 [Compound 363, 8-Chloro-2-methyl-5-[2-(5-methyl-pyrazin-2-yl)-ethyl]-2,3,4,5-tetrahydro-1H-pyrido[4,3-b]indole] | 83% | 24% | 75% | 31% | 104% | 66% |
| CCc1ccc2c(c1)c1c(n2CCc2cnc(C)cn2)CCN(C)C1 [Compound 364, 8-Ethyl-2-methyl-5-[2-(5-methyl-pyrazin-2-yl)-ethyl]-2,3,4,5-tetrahydro-1H-pyrido[4,3-b]indole] | 70% | 29% | 59% | 13% | 109% | 81% |
| Cc1cnc(CCn2c3c(c4cc(C(C)C)ccc42)CN(C)CC3)cn1 [Compound 369, 8-Isopropyl-2-methyl-5-[2-(5-methyl-pyrazin-2-yl)-ethyl]-2,3,4,5-tetrahydro-1H-pyrido[4,3-b]indole] | 23% | 1% | 10% | 6% | 105% | 57% |
| Cc1ncc(CCn2c3c(c4cc(C(C)C)ccc42)CN(C)CC3)cn1 [Compound 370, 8-Isopropyl-2-methyl-5-[2-(2-methyl-pyrimidin-5-yl)-ethyl]-2,3,4,5-tetrahydro-1H-pyrido[4,3-b]indole] | 64% | 10% | 15% | 18% | 87% | 40% |
| CCc1ccc(CCn2c3c(c4cc(Cl)ccc42)CN(C)CC3)cn1 [Compound 371, 8-Chloro-5-[2-(6-ethyl-pyridin-3-yl)-ethyl]-2-methyl-2,3,4,5-tetrahydro-1H-pyrido[4,3-b]indole] | 88% | 40% | 93% | 74% | 98% | 87% |
| Cc1cccc2c3c(n(CCc4ccc(C(F)(F)F)nc4)c12)CCN(C)C3 [Compound 380, 5-(2-(6-(trifluoromethyl)pyridin-3-yl)ethyl)-2,3,4,5-tetrahydro-2,6-dimethyl-1H-pyrido[4,3-b]indole] | 39% | −5% | 88% | 69% | 103% | 70% |
| Cc1ccc2c(c1)c1c(n2CCc2cncnc2)CCN(C)C1 [Compound 387, 2,8-Dimethyl-5-(2-pyrimidin-5-yl-ethyl)-2,3,4,5-tetrahydro-1H-pyrido[4,3-b]indole] | 79% | 1% | 54% | 11% | 95% | 76% |
| Cc1ccc(CCn2c3c(c4cc(C(C)C)ccc42)CN(C)CC3)cn1 [Compound 392, 8-Isopropyl-2-methyl-5-[2-(6-methyl-pyridin-3-yl)-ethyl]-2,3,4,5-tetrahydro-1H-pyrido[4,3-b]indole] | 61% | 24% | 53% | 58% | 109% | 82% |
